This note sets out measurements from ChEMBL document CHEMBL1123125, “Sulfur-interrupted 8-amino side chain analogues of 4-methyl-5-[m-(trifluoromethyl)phenoxy]primaquine as potential antimalarial agents” (1985).

Common to all, as to format: functional
Experiment [1] has as its system Plasmodium cynomolgi. Description: Cures in Plasmodium cynomolgi infected Rhesus monkeys (Macaca mulatta) at 0.1 mg/kg dose; Cured 0 of 1.
For experiment [2], the system named is Plasmodium cynomolgi. As to the kind of experiment: Cures in Plasmodium cynomolgi infected Rhesus monkeys (Macaca mulatta) at 0.316 mg/kg dose; Cured 2 of 2.
Experiment [3] concerns Plasmodium cynomolgi. As to the kind of experiment: Cures in Plasmodium cynomolgi infected Rhesus monkeys (Macaca mulatta) at 1.0 mg/kg dose; Cures 2 of 2.
Experiment [4] concerns Mus musculus. As to the kind of experiment: Evaluated for number of toxic deaths occurring on day 2-5 after infection with Plasmodium berghei in mice (Mus musculus) at dose 640 mg/kg.
Experiment [5] has as its system Mus musculus. As to the kind of experiment: Evaluated for number of cures against Plasmodium berghei in mice (Mus musculus) (surviving 60 days) at dose 10 mg/kg.
Experiment [6] concerns Mus musculus. Description: Evaluated for number of cures against Plasmodium berghei in mice (Mus musculus) (surviving 60 days) at dose 160 mg/kg.
Experiment [7] deals with Mus musculus. As to the kind of experiment: Evaluated for number of cures against Plasmodium berghei in mice (Mus musculus) (surviving 60 days) at dose 20 mg/kg.
For experiment [8], the system named is Mus musculus. As to the kind of experiment: Evaluated for number of cures against Plasmodium berghei in mice (Mus musculus) (surviving 60 days) at dose 320 mg/kg.
Experiment [9] has as its system Mus musculus. As to the kind of experiment: Evaluated for number of cures against Plasmodium berghei in mice (Mus musculus) (surviving 60 days) at dose 40 mg/kg.
Experiment [10] concerns Mus musculus. Description: Evaluated for number of cures against Plasmodium berghei in mice (Mus musculus) (surviving 60 days) at dose 5 mg/kg.
Experiment [11] relates to Mus musculus. Description: Evaluated for number of cures against Plasmodium berghei in mice (Mus musculus) (surviving 60 days) at dose 640 mg/kg.
In experiment [12] the test system is Mus musculus. Description: Evaluated for number of cures against Plasmodium berghei in mice (Mus musculus) (surviving 60 days) at dose 80 mg/kg.
Experiment [13] relates to Mus musculus. Description: Evaluated for the change in mean survival time over controls against Plasmodium berghei in mice (Mus musculus) at dose 320 mg/kg.
Experiment [14] has as its system Plasmodium cynomolgi. As to the kind of experiment: Relapses in Plasmodium cynomolgi infected Rhesus monkeys (Macaca mulatta) at 0.1 mg/kg dose.
Experiment [15] concerns Plasmodium cynomolgi. As to the kind of experiment: Number of relapses in Plasmodium cynomolgi infected Rhesus monkeys (Macaca mulatta) at 1.0 mg/kg dose.
In experiment [16] the test system is Plasmodium cynomolgi. Description: Cures against Plasmodium cynomolgi infected Rhesus monkeys (Macaca mulatta) at 1.0 mg/kg; cured 0 of 2.
Experiment [17] concerns Plasmodium cynomolgi. As to the kind of experiment: Cures in Plasmodium cynomolgi infected Rhesus monkeys (Macaca mulatta) at 0.1 mg/kg dose; Cured 0 of 2.
For experiment [18], the system named is Mus musculus. As to the kind of experiment: Evaluated for the change in mean survival time over controls against Plasmodium berghei in mice (Mus musculus) at dose 40 mg/kg.
In experiment [19] the test system is Mus musculus. Description: Evaluated for the change in mean survival time over controls against Plasmodium berghei in mice (Mus musculus) at dose 640 mg/kg.
Experiment [20] has as its system Mus musculus. Description: Evaluated for the change in mean survival time over controls against Plasmodium berghei in mice (Mus musculus) at dose 80 mg/kg.
The subject of experiment [21] is Mus musculus. As to the kind of experiment: Evaluated for the change in mean survival time over controls against Plasmodium berghei in mice (Mus musculus) at dose 160 mg/kg.
Experiment [22] relates to Mus musculus. As to the kind of experiment: Evaluated for number of toxic deaths against Plasmodium berghei yoelii in mice (Mus musculus) at subcutaneous dose of 40 mg/kg.
Experiment [23] deals with Mus musculus. As to the kind of experiment: Evaluated for number of cures against Plasmodium berghei yoelii in mice (Mus musculus) at subcutaneous dose 40 mg/kg; 1/15.
Experiment [24] concerns Mus musculus. Description: Evaluated for number of toxic deaths against Plasmodium berghei yoelii in rodents at subcutaneous dose of 160 mg/kg.
Experiment [25] has as its system Mus musculus. Description: Evaluated for number of cures against Plasmodium berghei yoelii in rodents at peroral dose 10 mg/kg; 0/5. Conditions: route oral.
The test system of experiment [26] is Mus musculus. As to the kind of experiment: Evaluated for number of cures against Plasmodium berghei yoelii in mice (Mus musculus) at peroral dose 160 mg/kg; Number of tested 5. Conditions: route oral.
In experiment [27] the test system is Mus musculus. Description: Evaluated for number of cures against Plasmodium berghei yoelii in mice (Mus musculus) at peroral dose 40 mg/kg; 0/5. Conditions: route oral.
Experiment [28] deals with Mus musculus. Description: Evaluated for number of cures against Plasmodium berghei yoelii in mice (Mus musculus) at subcutaneous dose 10 mg/kg; 0/15.
Experiment [29] relates to Mus musculus. Description: Evaluated for number of cures against Plasmodium berghei yoelii in rodents at subcutaneous dose 160 mg/kg; 5/15.
For experiment [30], the system named is Mus musculus. Description: Evaluated for the change in mean survival time over controls against Plasmodium berghei in mice (Mus musculus) at dose 20 mg/kg.
Experiment [31] deals with Plasmodium cynomolgi. Description: Number of relapses in Plasmodium cynomolgi infected Rhesus monkeys (Macaca mulatta) at 0.316 mg/kg dose.
Experiment [32] has as its system Plasmodium cynomolgi. Description: Cures against Plasmodium cynomolgi infected Rhesus monkeys (Macaca mulatta) at 0.316 mg/kg dose; cured 0 of 2.
In experiment [33] the test system is Plasmodium cynomolgi. As to the kind of experiment: Cures in Plasmodium cynomolgi infected Rhesus monkeys (Macaca mulatta) at 1.0 mg/kg dose; Cured 1 of 2.
Experiment [34] deals with Mus musculus. Description: Evaluated for number of cures against Plasmodium berghei yoelii in rodents at subcutaneous dose 160 mg/kg; 8/30.
Experiment [35] has as its system Mus musculus. Description: Evaluated for number of cures against Plasmodium berghei yoelii in rodents at subcutaneous dose 2.5 mg/kg; 0/5.
Experiment [36] relates to Mus musculus. Description: Evaluated for number of cures against Plasmodium berghei yoelii in rodents at subcutaneous dose 40 mg/kg; 7/30.
The subject of experiment [37] is Mus musculus. As to the kind of experiment: Evaluated for number of cures against Plasmodium berghei yoelii in rodents at peroral dose 10 mg/kg; 2/20. To be noted: route oral.
In experiment [38] the test system is Mus musculus. As to the kind of experiment: Evaluated for number of cures against Plasmodium berghei yoelii in mice (Mus musculus) at peroral dose 160 mg/kg; 19/20. Conditions: route oral.
Experiment [39] has as its system Mus musculus. Description: Evaluated for number of cures against Plasmodium berghei yoelii in rodents at peroral dose 2.5 mg/kg; 0/5. Conditions: route oral.
Experiment [40] relates to Mus musculus. Description: Evaluated for number of cures against Plasmodium berghei yoelii in rodents at peroral dose 40 mg/kg; 7/20. Conditions: route oral.
The subject of experiment [41] is Mus musculus. As to the kind of experiment: Evaluated for number of cures against Plasmodium berghei yoelii in rodents at subcutaneous dose 10 mg/kg; 5/30.
Experiment [42] concerns Mus musculus. Description: Evaluated for number of toxic deaths occurring on day 2-5 after infection with Plasmodium berghei in mice (Mus musculus) at dose 320 mg/kg.
For experiment [43], the system named is Mus musculus. Description: Evaluated for number of toxic deaths occurring on day 2-5 after infection with Plasmodium berghei in mice (Mus musculus) at dose 160 mg/kg.

Consider `COc1cc(NC(C)CCCN)c2nccc(C)c2c1Oc1cccc(C(F)(F)F)c1` (configuration not stated), for which the No. of cures in the experiment with Plasmodium cynomolgi [1] is given as 0; in the experiment with Plasmodium cynomolgi [2] it was 2; with Plasmodium cynomolgi [3], 2; in the experiment with Mus musculus [5], 3; in the experiment with Mus musculus [6], 5; in the experiment with Mus musculus [7], 5. Further, the No. of cures amounted to 5 with Mus musculus [8]; 5 in the experiment with Mus musculus [9]; 1 with Mus musculus [10]; 1 in the experiment with Mus musculus [11]; 5 with Mus musculus [12]. This compound also returned a No. of deaths with Mus musculus [4] of 4.
In the case of `COc1cc(NCC(C)SCCN)c2nccc(C)c2c1Oc1cccc(C(F)(F)F)c1` (configuration not stated), the “Change in MST” value is 6.5 with Mus musculus [13]; 0.5 in the experiment with Mus musculus [18]; 9.7 with Mus musculus [19]; 1.5 in the experiment with Mus musculus [20]; 4.5 in the experiment on Mus musculus [21]. Besides, the No. of relapses with Plasmodium cynomolgi [14] and in the experiment on Plasmodium cynomolgi [15] was 7 each time. Besides, the No. of cures with Plasmodium cynomolgi [16] amounted to 0; with Plasmodium cynomolgi [17], 0; in the experiment on Mus musculus [23], 1; in the experiment on Mus musculus [8], 1; in the experiment on Mus musculus [25], 0; with Mus musculus [26], 0. For the same compound, the No. of cures in the experiment on Mus musculus [27] is 0; in the experiment on Mus musculus [28], 0; with Mus musculus [29] it was 5. The No. of deaths with Mus musculus [22] and with Mus musculus [24] was 1 throughout.
Turning to `COc1cc(NC(C)CSCCN)c2nccc(C)c2c1Oc1cccc(C(F)(F)F)c1` (configuration not stated), the “Change in MST” value is listed as 3 in the experiment with Mus musculus [30]; 9.6 with Mus musculus [13]; 2 in the experiment on Mus musculus [18]; 12.3 with Mus musculus [19]; 6.6 with Mus musculus [20]; 6.8 in the experiment with Mus musculus [21]. The No. of relapses with Plasmodium cynomolgi [14] is on record as 8; in the experiment with Plasmodium cynomolgi [31], 28; with Plasmodium cynomolgi [15], 18. The No. of cures is recorded as 0 with Plasmodium cynomolgi [17]; 0 in the experiment with Plasmodium cynomolgi [32]; 1 in the experiment with Plasmodium cynomolgi [33]; 8 with Mus musculus [34]; 0 with Mus musculus [35]; 7 with Mus musculus [36]. The No. of cures in the experiment on Mus musculus [8] was determined as 1; with Mus musculus [11] it was 2; in the experiment on Mus musculus [37] it was 2; in the experiment with Mus musculus [38], 19; with Mus musculus [39], 0; with Mus musculus [40], 7. In the experiment on Mus musculus [41], this compound returned a No. of cures of 5. Also, the No. of deaths with Mus musculus [4] amounted to 1; in the experiment on Mus musculus [22] it was 2; in the experiment with Mus musculus [24], 3.
In the case of `COc1cc(NC(C)CCCN)c2ncccc2c1` (configuration not stated) [PRIMAQUINE], the values for the No. of cures with Plasmodium cynomolgi [17], in the experiment on Plasmodium cynomolgi [32] and in the experiment with Plasmodium cynomolgi [33] were 0, 0 and 1, respectively. Further, the “Change in MST” value with Mus musculus [20] worked out at 9. For the same compound, the No. of deaths in the experiment on Mus musculus [4] is given as 5; with Mus musculus [42], 5; in the experiment on Mus musculus [43], 2.
